Reference: patent US11203574B2 (BioCryst Pharmaceuticals, Inc., priority 2014, dated 2021)

The molecules below were run against human plasma kallikrein (Homo sapiens (Human), UniProt P03952) (assay: Plasma kallikrein activity assay (chromogenic substrate S2302)). Conditions: 2 nM kallikrein, 80 μM S2302, 30° C., pH 7.8; Ki by Cheng-Prusoff equation; values given as ranges; read-out: Ki.
Assay type: biochemical
Protocol: Plasma Kallikrein Activity Assay.
The effect of compounds of the invention on human plasma kallikrein activity was determined using the chromogenic substrates (DiaPharma Group, Inc., West Chester, Ohio, USA). In these experiments, 2 nM kallikrein (Enzyme Research Laboratories, South Bend, Ind., USA) was incubated with 80 μM S2302 (H-D-Pro-Phe-Arg-p-nitroaniline) in the absence or presence of increasing concentrations of compounds of the invention in a final volume of 200 μL Tris-HCl buffer (200 mM NaCl; mM CaCl2; 50 mM Tris-HCl, pH 7.8).
Data were analyzed using SigmaPlot software (Systat Software, Inc., San Jose, Calif., USA) (Four Parameter Logistic Curve).

human plasma kallikrein, sequence (P03952 whole entry, looked up): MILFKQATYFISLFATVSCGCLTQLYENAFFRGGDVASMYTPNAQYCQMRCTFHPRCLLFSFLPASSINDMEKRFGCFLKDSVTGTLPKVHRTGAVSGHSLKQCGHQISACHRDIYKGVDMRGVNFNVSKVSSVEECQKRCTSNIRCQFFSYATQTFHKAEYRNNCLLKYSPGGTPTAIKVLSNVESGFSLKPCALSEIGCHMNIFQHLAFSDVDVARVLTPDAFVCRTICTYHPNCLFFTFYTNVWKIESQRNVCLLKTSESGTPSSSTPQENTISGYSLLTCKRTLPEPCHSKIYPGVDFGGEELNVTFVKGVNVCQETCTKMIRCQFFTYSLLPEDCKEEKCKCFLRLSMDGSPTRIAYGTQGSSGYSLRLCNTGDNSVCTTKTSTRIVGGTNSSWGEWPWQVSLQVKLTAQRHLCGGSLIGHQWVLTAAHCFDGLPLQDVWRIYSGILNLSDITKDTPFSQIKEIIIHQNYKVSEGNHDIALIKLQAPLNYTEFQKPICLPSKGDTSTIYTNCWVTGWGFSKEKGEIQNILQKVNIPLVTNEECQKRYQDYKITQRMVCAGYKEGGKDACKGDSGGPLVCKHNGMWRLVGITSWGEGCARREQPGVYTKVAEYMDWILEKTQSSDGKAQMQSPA
human plasma kallikrein, sequence (P03952 whole entry partner, looked up): as the sequence (P03952 whole entry, looked up) above

Row | SMILES | Ki [nM]
1 | NCc1cccc(-n2nc(C(F)(F)F)cc2C(=O)Nc2cccc(C(OCC3CC3)c3ccccn3)c2)c1 (single isomer, unassigned; (+)) [43h, (+)-1-(3-(aminomethyl)phenyl)-N-(3-((cyclopropylmethoxy)(pyridin-2-yl)methyl)-phenyl)-3-(trifluoromethyl)-1H-pyrazole-5-carboxamide] | 0.1 to 50
2 | NCc1cccc(-n2nc(C(F)(F)F)cc2C(=O)Nc2cccc(C(NCC3CC3)c3cccc(OC(F)(F)F)c3)c2)c1 (stereo not drawn) [124f, 1-(3-(aminomethyl)phenyl)-N-(3-((cyclopropylmethylamino)(3-(trifluoromethoxy)phenyl)methyl)phenyl)-3-(trifluoromethyl)-1H-pyrazole-5-carboxamide] | 0.1 to 50
3 | NCc1cccc(-n2nc(C(F)(F)F)cc2C(=O)Nc2cccc(C(OCC3CCC3)c3ccccc3)c2)c1 (stereo not drawn) [75a, 1-(3-(aminomethyl)phenyl)-N-(3-((cyclobutylmethoxy)(phenyl)methyl)phenyl)-3-(trifluoromethyl)-1H-pyrazole-5-carboxamide] | 50 to 100
4 | CC(C)C(=O)NC(CCC1CC1)(c1cccnc1)c1ccc(F)c(NC(=O)c2cc(C(F)(F)F)nn2-c2cccc(CN)c2)c1 (single isomer, unassigned; (-)) [244j, (−)-1-(3-(aminomethyl)phenyl)-N-(5-(3-cyclopropyl-1-isobutyramido-1-(pyridin-3-yl)propyl)-2-fluorophenyl)-3-(trifluoromethyl)-1H-pyrazole-5-carboxamide] | 0.1 to 50
5 | NCc1cccc(-n2nc(C(F)(F)F)cc2C(=O)Nc2cccc(C(NCC3CC3)c3cccc(C(F)(F)F)c3)c2)c1 (stereo not drawn) [111f, 1-(3-(Aminomethyl)phenyl)-N-(3-((cyclopropylmethylamino)(3-(trifluoromethyl)phenyl)methyl)phenyl)-3-(trifluoromethyl)-1H-pyrazole-5-carboxamide] | 0.1 to 50
6 | NCc1cccc(-n2nc(C(F)(F)F)cc2C(=O)Nc2cc(C(N)(CCC3CC3)c3ccncc3)ccc2F)c1 (single isomer, unassigned; (-)) [217d, (−)-N-(5-(1-amino-3-cyclopropyl-1-(pyridin-4-yl)propyl)-2-fluorophenyl)-1-(3-(aminomethyl)phenyl)-3-(trifluoromethyl)-1H-pyrazole-5-carboxamide] | 50 to 100
7 | Nc1nccc2ccc(-n3nc(C(F)(F)F)cc3C(=O)Nc3cc(C(CCC4CC4)n4ccccc4=O)ccc3F)cc12 (stereo not drawn) [258g, 1-(1-aminoisoquinolin-7-yl)-N-(5-(3-cyclopropyl-1-(2-oxopyridin-1(2H)-yl)propyl)-2-fluorophenyl)-3-(trifluoromethyl)-1H-pyrazole-5-carboxamide] | 0.1 to 50
8 | N#Cc1cccc(C(N)(CCC2CC2)c2ccc(F)c(NC(=O)c3cc(C(F)(F)F)nn3-c3cccc(CN)c3)c2)n1 (single isomer, unassigned; (+)) [220f, (+)-N-(5-(1-amino-1-(6-cyanopyridin-2-yl)-3-cyclopropylpropyl)-2-fluorophenyl)-1-(3-(aminomethyl)phenyl)-3-(trifluoromethyl)-1H-pyrazole-5-carboxamide] | 0.1 to 50
9 | NCc1cccc(-n2nc(C(F)(F)F)cc2C(=O)Nc2cc(C(N)(CCC3CC3)c3ccc(C(N)=O)nc3)ccc2F)c1 (single isomer, unassigned; (+)) [221i, (+)-5-(1-amino-1-(3-(1-(3-(aminomethyl)phenyl)-3-(trifluoromethyl)-1H-pyrazole-5-carboxamido)-4-fluorophenyl)-3-cyclopropylpropyl)picolinamide] | 0.1 to 50
10 | COc1cccc(C(NCC2CC2)c2cccc(NC(=O)c3cc(C(F)(F)F)nn3-c3cccc(CN)c3)c2)c1O (stereo not drawn) [151g, 1-(3-(Aminomethyl)phenyl)-N-(3-((cyclopropylmethylamino)(2-hydroxy-3-methoxyphenyl)methyl)phenyl)-3-(trifluoromethyl)-1H-pyrazole-5-carboxamide] | 0.1 to 50
11 | NCc1cccc(-n2nc(C(F)(F)F)cc2C(=O)Nc2cc(C(CCC3CC3)N3CCCCC3=O)ccc2F)c1 (single isomer, unassigned; (+)) [261k, (+)-1-(3-(aminomethyl)phenyl)-N-(5-(3-cyclopropyl-1-(2-oxopiperidin-1-yl)propyl)-2-fluorophenyl)-3-(trifluoromethyl)-1H-pyrazole-5-carboxamide] | 0.1 to 50
12 | NCc1cccc(-n2nc(C(F)(F)F)cc2C(=O)Nc2cc(C(NCC3CC3)c3nccs3)ccc2F)c1 (stereo not drawn) [101e, 1-(3-(Aminomethyl)phenyl)-N-(5-((cyclopropylmethylamino)(thiazol-2-yl)methyl)-2-fluorophenyl)-3-(trifluoromethyl)-1H-pyrazole-5-carboxamide] | 0.1 to 50
13 | NCc1cccc(-n2nc(C(F)(F)F)cc2C(=O)Nc2cccc(C(OCC3CC3)c3nccs3)c2)c1 (stereo not drawn) [82f, 1-(3-(aminomethyl)phenyl)-N-(3-((cyclopropylmethoxy)(thiazol-2-yl)methyl)phenyl)-3-(trifluoromethyl)-1H-pyrazole-5-carboxamide] | 0.1 to 50
14 | CC(C)COC(c1ccccc1)c1cccc(NC(=O)c2cc(C(F)(F)F)nn2-c2cccc(CN)c2)c1 (stereo not drawn) [18i, 1-(3-(aminomethyl)phenyl)-N-(3-(isobutoxy(phenyl)methyl)phenyl)-3-(trifluoromethyl)-1H-pyrazole-5-carboxamide] | 50 to 100
15 | NCc1cccc(-n2nc(C(F)(F)F)cc2C(=O)Nc2cccc(C(O)(CCC3CC3)c3cccnc3)c2)c1 (single isomer, unassigned; (-)) [47g, (−)-1-(3-(aminomethyl)phenyl)-N-(3-(3-cyclopropyl-1-hydroxy-1-(pyridin-3-yl)propyl)phenyl)-3-(trifluoromethyl)-1H-pyrazole-5-carboxamide] | 0.1 to 50
16 | Nc1nccc2ccc(-n3nc(C(F)(F)F)cc3C(=O)Nc3cc(C(N)(CCC4CC4)c4ccncc4)ccc3F)cc12 (single isomer, unassigned; (+)) [253e, (+)-N-(5-(1-amino-3-cyclopropyl-1-(pyridin-4-yl)propyl)-2-fluorophenyl)-1-(1-aminoisoquinolin-7-yl)-3-(trifluoromethyl)-1H-pyrazole-5-carboxamide] | 0.1 to 50
17 | N=C(N)c1cccc(-n2nc(C(F)(F)F)cc2C(=O)Nc2cc(C(N)(CCC3CC3)c3cccnc3)ccc2F)c1 (single isomer, unassigned; (+)) [238d, (+)-N-(5-(1-amino-3-cyclopropyl-1-(pyridin-3-yl)propyl)-2-fluorophenyl)-1-(3-carbamimidoylphenyl)-3-(trifluoromethyl)-1H-pyrazole-5-carboxamide] | 0.1 to 50
18 | NCc1cccc(-n2nc(C(F)(F)F)cc2C(=O)Nc2cccc(N(CCC3CC3)c3ccccc3)c2)c1 [87f, 1-(3-(aminomethyl)phenyl)-N-(3-((2-cyclopropylethyl)(phenyl)amino)phenyl)-3-(trifluoromethyl)-1H-pyrazole-5-carboxamide] | 0.1 to 50
19 | COc1cccc(C(NCC2CC2)c2ccc(F)c(NC(=O)c3cc(C(F)(F)F)nn3-c3cccc(CN)c3)c2)c1 (stereo not drawn) [141e, 1-(3-(aminomethyl)phenyl)-N-(5-(((cyclopropylmethyl)amino)(3-methoxyphenyl)methyl)-2-fluorophenyl)-3-(trifluoromethyl)-1H-pyrazole-5-carboxamide] | 0.1 to 50
20 | NCc1cccc(-n2nc(C(F)(F)F)cc2C(=O)Nc2cccc(C(O)(CCC3CC3)c3ccncc3)c2)c1 (stereo not drawn) [92g, 1-(3-(aminomethyl)phenyl)-N-(3-(3-cyclopropyl-1-hydroxy-1-(pyridin-4-yl)propyl)phenyl)-3-(trifluoromethyl)-1H-pyrazole-5-carboxamide] | 0.1 to 50
21 | N#Cc1ccc(C(N)(CCC2CC2)c2ccc(F)c(NC(=O)c3cc(C(N)=O)nn3-c3cccc(CN)c3)c2)cc1 (single isomer, unassigned; (+)) [231d, (+)-N^5-(5-(1-amino-1-(4-cyanophenyl)-3-cyclopropylpropyl)-2-fluorophenyl)-1-(3-(aminomethyl)phenyl)-1H-pyrazole-3,5-dicarboxamide] | 0.1 to 50
22 | NCc1cccc(-n2nc(C(F)(F)F)cc2C(=O)Nc2cccc(C(NCC3CC3)c3ccc4ccccc4c3)c2)c1 (stereo not drawn) [128g, 1-(3-(aminomethyl)phenyl)-N-(3-((cyclopropylmethylamino)(naphthalen-2-yl)methyl)phenyl)-3-(trifluoromethyl)-1H-pyrazole-5-carboxamide] | 0.1 to 50
23 | N#Cc1ccc(C(N)(CCC2CC2)c2ccc(F)c(NC(=O)c3cc(C(F)(F)F)nn3-c3cccc(C(=N)N)c3)c2)cc1 (single isomer, unassigned; (+)) [241a, (+)-N-(5-(1-amino-1-(4-cyanophenyl)-3-cyclopropylpropyl)-2-fluorophenyl)-1-(3-carbamimidoylphenyl)-3-(trifluoromethyl)-1H-pyrazole-5-carboxamide] | 0.1 to 50
24 | NCc1cccc(-n2nc(C(F)(F)F)cc2C(=O)Nc2cccc(C(OCC3CC3)c3ccccc3)c2)c1 (stereo not drawn) [18k, 1-(3-(aminomethyl)phenyl)-N-(3-((cyclopropylmethoxy)(phenyl)methyl)phenyl)-3-(trifluoromethyl)-1H-pyrazole-5-carboxamide] | 0.1 to 50
25 | NCc1cccc(-n2nc(C(F)(F)F)cc2C(=O)Nc2cccc(C(O)(CNC3CC3)c3ccccc3)c2)c1 (stereo not drawn) [99g, 1-(3-(aminomethyl)phenyl)-N-(3-(2-(cyclopropylamino)-1-hydroxy-1-phenylethyl)phenyl)-3-(trifluoromethyl)-1H-pyrazole-5-carboxamide] | 0.1 to 50
26 | N#Cc1ccc(C(N)(CCC2CC2)c2ccc(F)c(NC(=O)c3cc(C(F)(F)F)nn3-c3ccc4ccnc(N)c4c3)c2)cc1 (single isomer, unassigned; (+)) [254c, (+)-N-(5-(1-amino-1-(4-cyanophenyl)-3-cyclopropylpropyl)-2-fluorophenyl)-1-(1-aminoisoquinolin-7-yl)-3-(trifluoromethyl)-1H-pyrazole-5-carboxamide] | 0.1 to 50
27 | NCc1cccc(-n2nc(C(F)(F)F)cc2C(=O)Nc2cccc(C(NCC3CC3)c3cn[nH]c3)c2)c1 (stereo not drawn) [84h, 1-(3-(aminomethyl)phenyl)-N-(3-(((cyclopropylmethyl)amino)(1H-pyrazol-4-yl)methyl)phenyl)-3-(trifluoromethyl)-1H-pyrazole-5-carboxamide] | 0.1 to 50
